Marks after values point to notes of the source that are not given here.
Tests used:
PCK rats = assay: Body, liver and kidney weights in PCK rats after 6 weeks of treatment; assay type: in vivo, rat; conditions: for Kidney Weight / Kidney Weight (% bw) / Liver Weight / Liver Weight (% bw): 6 weeks in drinking water; for Body Weight: 6 weeks in drinking water (VC 15 g/L; VK3 0.15 g/L; APATONE® 15 g/L + 0.15 g/L)
Description: (§1) Thirty seven PCK rats (20 females and 17 males) at age of 3 weeks were divided into four groups: (i) vitamin C (VC) treatment group: 5 females and 4 males; (ii) vitamin K3 (VK3) treatment group: 5 females and 4 males; (iii) APATONE® treatment group: 6 females and 5 males; and (iv) control group: 4 females and 4 males. Similarly, twenty Pkd2^WS25/− mice (12 females and 8 males) at age of 5 months were divided into four groups: (i) vitamin C (VC) treatment group: 3 females; (ii) vitamin K3 (VK3) treatment group: 2 females and 2 males; (iii) APATONE® treatment group: 4 females and 3 males; and (iv) control group: 3 females and 3 males.
(§2) The VC treatment groups were given vitamin C at a concentration of 15 g/L in drinking water. The VK3 treatment groups were given vitamin K3 at a concentration of 0.15 g/L in drinking water. The APATONE® treatment groups were given vitamins C and K3 at concentrations of 15 g/L and 0.15 g/L, respectively, in drinking water. The control groups were given drinking water only. Rats or mice in each group were allowed to drink freely.
(§3) The rats and mice were sacrificed after 6 weeks of treatment. The following parameters were analyzed: body weights, liver and kidney weights, serum biochemistry, renal and hepatic cystic and fibrotic areas, apoptotic and proliferation indices, expression of Cdc25A and its down-stream targets. […]

Pkd2^WS25/− mice = assay: Body, liver and kidney weights in Pkd2^WS25/− mice after 6 weeks of treatment; assay type: in vivo, mouse; conditions: for Kidney Weight / Kidney Weight (%) / Liver Weight / Liver Weight (%): 6 weeks in drinking water; for Body Weight: 6 weeks in drinking water (VC 15 g/L; VK3 0.15 g/L; APATONE® 15 g/L + 0.15 g/L)
Description: as §1, §2, §3

Compound: O=C1O[C@H]([C@@H](O)CO)C(O)=C1O [VC, L-ascorbic acid]
- Kidney Weight (PCK rats; Female): 3.88 ± 0.19 g
- Kidney Weight (% bw) (PCK rats; Female): 1.47 ± 0.11 % bw
- Liver Weight (PCK rats; Female): 16.6 ± 1.3 g
- Liver Weight (% bw) (PCK rats; Female): 6.36 ± 0.23 % bw
- Body Weight (PCK rats; Female): 261 ± 10 g
- Body Weight (g) Change vs Ctrl (PCK rats; Female): −3.3%
- Kidney Weight (% bw) Change vs Ctrl (PCK rats; Female): −0.7%
- Kidney Weight (g) Change vs Ctrl (PCK rats; Female): −2.8%
- Liver Weight (% bw) Change vs Ctrl (PCK rats; Female): 0.8%
- Liver Weight (g) Change vs Ctrl (PCK rats; Female): −2.8%
- Kidney Weight (PCK rats; Male): 4.95 ± 0.18 g
- Kidney Weight (% bw) (PCK rats; Male): 1.19 ± 0.13 % bw
- Liver Weight (PCK rats; Male): 23.3 ± 1.8 g
- Liver Weight (% bw) (PCK rats; Male): 5.61 ± 0.14 % bw
- Body Weight (PCK rats; Male): 416 ± 13 g
- Body Weight (g) Change vs Ctrl (PCK rats; Male): 0.8%
- Kidney Weight (% bw) Change vs Ctrl (PCK rats; Male): 0%
- Kidney Weight (g) Change vs Ctrl (PCK rats; Male): 1.2%
- Liver Weight (% bw) Change vs Ctrl (PCK rats; Male): −1.2%
- Liver Weight (g) Change vs Ctrl (PCK rats; Male): −0.4%
- Kidney Weight (Pkd2^WS25/− mice): 0.46 ± 0.04 g
- Kidney Weight (%) (Pkd2^WS25/− mice): 1.76 ± 0.16%
- Liver Weight (Pkd2^WS25/− mice): 2.29 ± 0.43 g
- Liver Weight (%) (Pkd2^WS25/− mice): 9.29 ± 2.01%
- Body Weight (Pkd2^WS25/− mice): 26.7 ± 2.0 g
- Body Weight (g) Change vs Ctrl (Pkd2^WS25/− mice): 1.5%
- Kidney Weight (% bw) Change vs Ctrl (Pkd2^WS25/− mice): −6.7%
- Kidney Weight (g) Change vs Ctrl (Pkd2^WS25/− mice): −6.1%
- Liver Weight (% bw) Change vs Ctrl (Pkd2^WS25/− mice): 15.4%
- Liver Weight (g) Change vs Ctrl (Pkd2^WS25/− mice): 8.0%

Compound: CC1=CC(=O)c2ccccc2C1=O [VK3, menadione]
- Kidney Weight (PCK rats; Female): 3.78 ± 0.09 g
- Kidney Weight (% bw) (PCK rats; Female): 1.36 ± 0.13 % bw
- Liver Weight (PCK rats; Female): 15.5 ± 0.6 g
- Liver Weight (% bw) (PCK rats; Female): 5.60 ± 0.13 % bw
- Body Weight (PCK rats; Female): 276 ± 9 g
- Body Weight (g) Change vs Ctrl (PCK rats; Female): 2.2%
- Kidney Weight (% bw) Change vs Ctrl (PCK rats; Female): −8.1%*
- Kidney Weight (g) Change vs Ctrl (PCK rats; Female): −5.2%*
- Liver Weight (% bw) Change vs Ctrl (PCK rats; Female): −11.3%*
- Liver Weight (g) Change vs Ctrl (PCK rats; Female): −9.2%*
- Kidney Weight (PCK rats; Male): 4.57 ± 0.13 g
- Kidney Weight (% bw) (PCK rats; Male): 1.11 ± 0.11 % bw
- Liver Weight (PCK rats; Male): 20.8 ± 0.5 g
- Liver Weight (% bw) (PCK rats; Male): 5.12 ± 0.09 % bw
- Body Weight (PCK rats; Male): 408 ± 16 g
- Body Weight (g) Change vs Ctrl (PCK rats; Male): −1.1%
- Kidney Weight (% bw) Change vs Ctrl (PCK rats; Male): −6.7%*
- Kidney Weight (g) Change vs Ctrl (PCK rats; Male): −6.5%*
- Liver Weight (% bw) Change vs Ctrl (PCK rats; Male): −9.8%*
- Liver Weight (g) Change vs Ctrl (PCK rats; Male): −10.9%*
- Kidney Weight (Pkd2^WS25/− mice): 0.42 ± 0.01 g
- Kidney Weight (%) (Pkd2^WS25/− mice): 1.53 ± 0.05%
- Liver Weight (Pkd2^WS25/− mice): 1.64 ± 0.15 g
- Liver Weight (%) (Pkd2^WS25/− mice): 5.87 ± 0.36%
- Body Weight (Pkd2^WS25/− mice): 27.9 ± 1.9 g
- Body Weight (g) Change vs Ctrl (Pkd2^WS25/− mice): 5.8%
- Kidney Weight (% bw) Change vs Ctrl (Pkd2^WS25/− mice): −19.0%*
- Kidney Weight (g) Change vs Ctrl (Pkd2^WS25/− mice): −14.3%*
- Liver Weight (% bw) Change vs Ctrl (Pkd2^WS25/− mice): −27.1%*
- Liver Weight (g) Change vs Ctrl (Pkd2^WS25/− mice): −22.6%*

Source: patent publication US9744152B2, “Vitamins C and K for treating polycystic diseases” (IC-MedTech Corporation, priority 2010, dated 2017)
